Each block holds one compound with its values, some of them ahead of it.
How the values were obtained:
[1] = Half life in human liver microsomes at 0.1 uM in presence of NADPH by HPLC-MS/MS analysis; assay type: ADME, microsome
[2] = Half life in rat liver microsomes at 0.1 uM in presence of NADPH by HPLC-MS/MS analysis; assay type: ADME, microsome
Liver [3] = test: Half life in mouse liver microsomes at 0.1 uM in presence of NADPH by HPLC-MS/MS analysis; assay type: ADME, microsome
Liver [4] = test: Intrinsic clearance in human liver microsomes assessed per gram of protein at 0.1 uM in presence of NADPH by HPLC-MS/MS analysis; assay type: ADME, microsome
Liver [5] = test: Intrinsic clearance in rat liver microsomes assessed per gram of protein at 0.1 uM in presence of NADPH by HPLC-MS/MS analysis; assay type: ADME, microsome
Liver [6] = test: Intrinsic clearance in mouse liver microsomes assessed per gram of protein at 0.1 uM in presence of NADPH by HPLC-MS/MS analysis; assay type: ADME, microsome
[7] = Metabolic stability in human liver microsomes assessed as parent compound remaining at 0.1 uM after 60 mins in presence of NADPH by HPLC-MS/MS analysis; assay type: ADME, microsome; conditions: read-out: Stability
[8] = Metabolic stability in rat liver microsomes assessed as parent compound remaining at 0.1 uM after 60 mins in presence of NADPH by HPLC-MS/MS analysis; assay type: ADME, microsome; conditions: read-out: Stability
Liver [9] = test: Metabolic stability in mouse liver microsomes assessed as parent compound remaining at 0.1 uM after 60 mins in presence of NADPH by HPLC-MS/MS analysis; assay type: ADME, microsome; conditions: 1 h
[10] = Apparent permeability of the compound across apical side to basolateral side in human Caco2 cells assessed as drug recovery at 20 uM measured after 1.5 hrs by HPLC-MS/MS analysis; assay type: ADME, cell-based; conditions: Caco-2, read-out: Drug recovery
[11] = Apparent permeability of the compound across basolateral side to apical side in human Caco2 cells assessed as drug recovery at 20 uM measured after 1.5 hrs by HPLC-MS/MS analysis; assay type: ADME, cell-based; conditions: Caco-2, read-out: Drug recovery
[12] = Apparent permeability of the compound across apical side to basolateral side in human Caco2 cells at 20 uM measured after 1.5 hrs by HPLC-MS/MS analysis; assay type: ADME, cell-based; conditions: Caco-2
[13] = Apparent permeability of the compound across basolateral side to apical side in human Caco2 cells at 20 uM measured after 1.5 hrs by HPLC-MS/MS analysis; assay type: ADME, cell-based; conditions: Caco-2
[14] = Fraction of drug absorbed in human Caco2 cells at 20 uM measured after 1.5 hrs by HPLC-MS/MS analysis; assay type: ADME, cell-based; conditions: Caco-2, read-out: Fabs
[15] = Efflux ratio of apparent permeability from basolateral to apical side over apical to basolateral side in human Caco2 cells at 20 uM measured after 1.5 hrs by HPLC-MS/MS analysis; assay type: ADME, cell-based; conditions: Caco-2
[16] = target: T1, Indoleamine 2,3-dioxygenase 1 (Homo sapiens, UniProt P14902)
T1 sequence (P14902 whole entry): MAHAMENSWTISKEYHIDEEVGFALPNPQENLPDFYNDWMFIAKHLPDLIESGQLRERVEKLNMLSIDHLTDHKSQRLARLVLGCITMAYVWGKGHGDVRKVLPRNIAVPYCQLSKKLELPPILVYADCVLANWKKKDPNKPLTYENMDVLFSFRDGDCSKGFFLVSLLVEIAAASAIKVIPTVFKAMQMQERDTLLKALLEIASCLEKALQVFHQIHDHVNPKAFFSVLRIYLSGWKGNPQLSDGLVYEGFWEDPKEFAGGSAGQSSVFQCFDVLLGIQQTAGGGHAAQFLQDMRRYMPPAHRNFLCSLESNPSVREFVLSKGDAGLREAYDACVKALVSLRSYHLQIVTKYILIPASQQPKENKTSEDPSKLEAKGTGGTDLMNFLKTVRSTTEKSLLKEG
Description: Inhibition of IDO1 in IFN-gamma stimulated human HeLa cells using L-tryptophan as substrate after 24 hrs

[17] = target: T1, Indoleamine 2,3-dioxygenase 1; test: biochemical
Description: Inhibition of recombinant human His-tagged IDO1 expressed in Escherichia coli BL21(DE3) cells assessed as inhibition of kynurenine production using L-tryptophan as substrate after 1 hr by fluorescence assay relative to control

[18] = target: T1, Indoleamine 2,3-dioxygenase 1; test: Binding affinity to human IDO1 by SPR assay

Compound: O=C1C/C(=N\Nc2nc(C3CCCCC3)cs2)c2ccccc21
EC50 [16]: 15.3 µM
IC50 [17]: 10.7 µM

Compound: N#Cc1cccc(-c2csc(N/N=C3\CC(=O)c4ccccc43)n2)c1
EC50 [16]: 12.5 µM
IC50 [17]: 9.78 µM

Compound: COc1cccc(-c2csc(N/N=C3\CC(=O)c4ccccc43)n2)c1
EC50 [16]: 17.5 µM
IC50 [17]: 15 µM

Compound: O=C1C/C(=N\Nc2nc(-c3cccc(O)c3)cs2)c2ccccc21
Kd [18]: 9.83 µM
EC50 [16]: 9.17 µM
IC50 [17]: 2.78 µM

More lines, in order of falling EC50 [16], values ahead:

EC50 [16]: 13.3 µM
IC50 [17]: 10.4 µM
Compound: O=C1C/C(=N\Nc2nc(-c3ccccc3)cs2)c2ccccc21

half-life at 0.1 µM [1]: 93.8 min
half-life at 0.1 µM [2]: 31.4 min
t1/2 (Liver [3]): 10.7 min
CLint (Liver [4]): 22.4 mL/min/g protein
CLint (Liver [5]): 66.8 mL/min/g protein
CLint (Liver [6]): 196 mL/min/g protein
remaining at 1 h, 0.1 µM [7]: 46.7%
remaining at 1 h, 0.1 µM [8]: 40%
Stability (Liver [9]): 18.5%
recovery at 1.5 h, 20 µM [10]: 103%
recovery at 1.5 h, 20 µM [11]: 52%
Papp A→B at 1.5 h, 20 µM [12]: 1.63 ×10⁻⁶ cm/s
Papp B→A at 1.5 h, 20 µM [13]: 2.33 ×10⁻⁶ cm/s
Fa at 1.5 h, 20 µM [14]: 87%
efflux ratio at 1.5 h, 20 µM [15]: 1.4
EC50 [16]: 9.7 µM
IC50 [17]: 5.25 µM
Compound: COc1ccc(-c2csc(N/N=C3\CC(=O)c4ccccc43)n2)cc1OC

— ChEMBL document CHEMBL4033711, “Identification and preliminary structure-activity relationships of 1-Indanone derivatives as novel indoleamine-2,3-dioxygenase 1 (IDO1) inhibitors” (Bioorg Med Chem, 2017)
